# Reference: patent US20070032537A1, “5-Substituted 2h-pyrazole-3-carboxylic acid derivatives as agonists for the acid receptor rup25 for the treatment of dyslipidemia and related diseases” (Arena Pharmaceuticals, Inc., priority 2003, published 2007)
# Where two headings read alike, the source gives them in different places.
# Assays:
# hRUP25 [1] = biological target: T1, hRUP25 (Homo sapiens, UniProt Q8TDS4); assay: Flash Plate adenylyl cyclase (cAMP) assay for agonists to hRUP25 in stably transfected CHO cells (clone 46); format: cell-based; settings: read-out: RUP25 (EC50)
# Excerpt: A modified Flash Plate™ Adenylyl Cyclase kit (New England Nuclear; Cat. No. SMP004A) is used for direct identification of candidate compounds as agonists to hRUP25 in accordance with the following protocol:
# Stably transfected CHO cells (clone 46) were harvested from flasks via non-enzymatic means. The cells were washed in PBS and resuspended in the manufacturer's Assay Buffer. Live cells were counted using a hemacytometer and Trypan blue exclusion, and the cell concentration was adjusted to 2×10^6 cells/ml. cAMP standards and Detection Buffer (comprising 2 μCi of tracer [^125I]-cAMP (100 μl) to 11 ml Detection Buffer) were prepared and maintained in accordance with the manufacturer's instructions. Candidate compounds identified as per above (if frozen, thawed at room temperature) were added to their respective wells (preferably wells of a 96-well plate) at increasing concentrations (3 μl/well; 12 μM final assay concentration). To these wells, 100,000 cells in 50 μl of Assay Buffer were added and the mixture was then incubated for 30 minutes at room temperature, with gentle shaking. Following the incubation, 100 μl of Detection Buffer was added to each well, followed by incubation for 2-24 hours. Plates were counted in a Wallac MicroBeta™ plate reader using “Prot. #31” (as per manufacturer instructions).
# [2] = system: rat epidimal fat derived adipocytes
# Excerpt: (§1) Lipolysis assays were done following the isolation of adipocytes from-rat or human. The source of fat from rats was the epididymal fat and from humans was either subcutaneous or omental. Cells were isolated following collagenase digestion and floatation. An elevation of intracellular cAMP levels and concomitant activation of lipolysis via hormone sensitive lipase was accomplished using isoproterenol, forskolin, 3-isobutyl-1-methyl-xanthine (IBMX) or a combination thereof at concentrations and times determined empirically and depending on the source of tissue. […] Data was analyzed using Excel and PrismGraph.
# [3] = system: adipocyte primary cultures derived from human subcutaneous fat; assay: cells; settings: read-out: EC50, inhibition of isoproterenol induced lipolysis
# Excerpt: as §1
# [4] = system: adipocyte primary cultures derived from human subcutaneous fat; settings: read-out: EC50, inhibition of isoproterenol induced lipolysis
# Excerpt: as §1
# hRUP25 [5] = biological target: T1, hRUP25; assay: cell-based
# T1 sequence (Q8TDS4 whole entry): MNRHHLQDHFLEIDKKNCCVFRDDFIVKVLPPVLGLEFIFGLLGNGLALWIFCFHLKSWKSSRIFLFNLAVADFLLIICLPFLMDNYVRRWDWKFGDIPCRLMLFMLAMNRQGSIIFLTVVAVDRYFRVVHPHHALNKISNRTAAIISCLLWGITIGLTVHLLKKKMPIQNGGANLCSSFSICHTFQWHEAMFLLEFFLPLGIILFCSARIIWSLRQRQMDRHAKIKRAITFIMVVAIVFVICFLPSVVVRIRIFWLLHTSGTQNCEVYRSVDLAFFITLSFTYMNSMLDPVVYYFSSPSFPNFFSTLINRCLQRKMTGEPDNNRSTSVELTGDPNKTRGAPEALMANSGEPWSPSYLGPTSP
compound,measurement,setting,value
"CSCc1cc(C(=O)O)[nH]n1 [Compound 48, 5-Methylsulfanylmethyl-2H-pyrazole-3-carboxylic acid]",EC50,hRUP25 [1],4.3 µM
"O=C(O)c1cccnc1 [nicotinic acid, pyridine-3-carboxylic acid]",inhibition of isoproterenol induced lipolysis,[2]; 10 μM,inhibiting isoproterenol induced lipolysis
same,dose-dependence of inhibition of isoproterenol induced lipolysis,[2]; increasing concentrations,dose-dependent inhibition
same,EC50,[3],0.716 µM
"c1cncc(-c2nn[nH]n2)c1 [Compound P-3-T, 3-tetrazole-5-pyridine]",EC50,[4],0.218 µM
CN1CCCC1c1cccnc1 (stereo not shown) [nicotine],EC50,hRUP25 [5],9.8 µM
"COCc1cc(C(=O)O)[nH]n1 [Compound 63, 5-Methoxymethyl-2H-pyrazole-3-carboxylic acid]",EC50,hRUP25 [1],7.9 µM
